Here are results for 25 compounds from ChEMBL document CHEMBL4118098, “Discovery of DS28120313 as a potent orally active hepcidin production inhibitor: Design and optimization of novel 4,6-disubstituted indazole derivatives” (Bioorg Med Chem Lett, 2017).

Each structure is given as a SMILES string. Where only a bound is given, the exact number is not on record here.

The subject of the test is HepG2. The test is described as follows: Inhibition of human recombinant BMP6-stimulated hepcidin mRNA expression in human HepG2 cells after 6 hrs by qRT-PCR analysis. Type of test: functional, cell-based. The settings on record: HepG2, 6 h. Background: In qPCR the cycle at which signal appears reflects the starting amount.

By IC50 is commonly meant the point on the concentration scale where inhibition reaches its midpoint. For the compound `Cc1[nH]nc(C2CC2)c1-c1cc(NS(C)(=O)=O)c2cn[nH]c2c1`, the IC50 amounted to 1200 nM.

For the compound `CNC(=O)Nc1cc(-c2c(C3CC3)n[nH]c2C)cc2[nH]ncc12`, the IC50 stood at 340 nM.

In the case of `COC(=O)Nc1cc(-c2c(-c3ccccc3)n[nH]c2C)cc2[nH]ncc12`, the IC50 came out at 1100 nM.

On to `Cc1[nH]nc(C2CC2)c1-c1ccc2c(-c3ccncc3)n[nH]c2c1`, for which the IC50 came to 2600 nM.

Turning to `Cc1[nH]nc(C2CC2)c1-c1cc(NC(=O)C2CC2)c2cn[nH]c2c1`, the IC50 is 1000 nM.

As for `COC(=O)Nc1cc(-c2c(C)n[nH]c2C)cc2[nH]ncc12`, the 50% inhibitory concentration (IC50) turned out to be 150 nM.

Consider `Cc1[nH]nc(C2CC2)c1-c1ccc2c(-c3ccc[nH]3)n[nH]c2c1`, for which the IC50 is 3100 nM.

On to `CC(=O)Nc1cc(-c2c(C3CC3)n[nH]c2C)cc2[nH]ncc12`, for which the 50% inhibitory concentration (IC50) turned out to be 190 nM.

`CCc1n[nH]c(C)c1-c1cc(NC(=O)OC)c2cn[nH]c2c1`: the IC50 came out at 180 nM.

Consider `COC(=O)Nc1cc(-c2c(C(=O)O)n[nH]c2C)cc2[nH]ncc12`, for which the IC50 was above 10000 nM.

As to `CNC(=O)c1cc(-c2c(C3CC3)n[nH]c2C)cc2[nH]ncc12`, the IC50 stood at 2200 nM.

Take `COC(=O)N(C)c1cc(-c2c(C3CC3)n[nH]c2C)cc2[nH]ncc12`: the IC50 was found to be 3000 nM.

For `CCC(=O)Nc1cc(-c2c(C3CC3)n[nH]c2C)cc2[nH]ncc12`, the IC50 was determined as 450 nM.

As to `Cc1[nH]nc(C2CC2)c1-c1ccc2c(-c3cccnc3)n[nH]c2c1`, the IC50 turned out to be 2300 nM.

On to `COC(=O)Nc1cc(-c2c(C(=O)OC)n[nH]c2C)cc2[nH]ncc12`, for which the IC50 worked out at 130 nM.

In the case of `Cc1[nH]nc(C2CC2)c1-c1ccc2c(-c3ccc(N4CCNCC4)nc3)n[nH]c2c1`, the IC50 is 170 nM.

Take `Cc1[nH]nc(C2CC2)c1-c1cc(NC(=O)c2ccc(N3CCN(C)CC3)cc2)c2cn[nH]c2c1`: the IC50 amounted to 1900 nM.

For `CCOC(=O)Nc1cc(-c2c(C3CC3)n[nH]c2C)cc2[nH]ncc12`, the IC50 came out at 660 nM.

Turning to `CC(=O)Nc1n[nH]c2cc(-c3c(C4CC4)n[nH]c3C)ccc12`, the IC50 was 410 nM.

For `COC(=O)Nc1cc(-c2c(-c3ccccn3)n[nH]c2C)cc2[nH]ncc12`, the IC50 is 320 nM.

In the case of `COCc1n[nH]c(C)c1-c1cc(NC(=O)OC)c2cn[nH]c2c1`, the IC50 worked out at 3900 nM.

For `Cc1[nH]nc(C2CC2)c1-c1ccc2cn[nH]c2c1`, the IC50 was 4100 nM.

Take `Cc1[nH]nc(C2CC2)c1-c1cc(N)c2cn[nH]c2c1`: the IC50 was 2700 nM.

With `CNC(=O)c1n[nH]c(C)c1-c1cc(NC(=O)OC)c2cn[nH]c2c1`, the IC50 was determined as 2000 nM.

Take `COC(=O)Nc1cc(-c2c(C(C)C)n[nH]c2C)cc2[nH]ncc12`: the IC50 was determined as 190 nM.
